# In US20170044208A1, “SELECTIVE GLUCOCORTICOID RECEPTOR LIGANDS” (The University of Manchester, priority 2013, published 2017):
# Like-named read-outs stand apart in the source and are kept apart here.
# Tests used:
# [1] = molecular target: T1, Glucocorticoid Receptor (GR) (Homo sapiens, UniProt P04150); assay: Transactivation assay (MMTV-Luc reporter in HeLa cells); type: cell-based
# T1 construct: Cells were transfected the next day with MMTV-Luc (5 μg) and pGL4-hRLuc (0.1 μg); endogenous in cells; host or cells: HeLa
# T1 sequence (P04150 1-777): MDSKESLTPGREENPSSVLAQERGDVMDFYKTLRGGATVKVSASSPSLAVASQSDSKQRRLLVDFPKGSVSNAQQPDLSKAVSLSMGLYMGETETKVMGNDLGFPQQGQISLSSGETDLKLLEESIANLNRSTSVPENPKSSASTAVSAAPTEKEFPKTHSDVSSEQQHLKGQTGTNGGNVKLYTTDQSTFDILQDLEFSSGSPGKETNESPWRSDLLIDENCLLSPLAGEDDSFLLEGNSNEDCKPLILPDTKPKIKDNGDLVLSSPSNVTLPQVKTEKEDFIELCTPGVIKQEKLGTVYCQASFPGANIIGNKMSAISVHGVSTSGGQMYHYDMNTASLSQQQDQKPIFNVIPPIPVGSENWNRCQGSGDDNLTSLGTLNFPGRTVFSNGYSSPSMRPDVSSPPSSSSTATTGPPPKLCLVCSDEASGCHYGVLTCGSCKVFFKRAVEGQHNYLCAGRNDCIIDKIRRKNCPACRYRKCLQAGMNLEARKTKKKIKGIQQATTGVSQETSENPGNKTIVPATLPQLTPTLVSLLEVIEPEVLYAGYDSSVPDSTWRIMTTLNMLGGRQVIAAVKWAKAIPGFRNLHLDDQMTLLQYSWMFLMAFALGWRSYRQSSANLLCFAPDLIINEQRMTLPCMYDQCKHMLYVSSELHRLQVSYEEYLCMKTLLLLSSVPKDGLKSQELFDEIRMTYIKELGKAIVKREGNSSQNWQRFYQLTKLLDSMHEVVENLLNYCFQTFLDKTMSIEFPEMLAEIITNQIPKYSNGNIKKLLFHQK
# Experimental: (§1) HeLa cells were seeded at 80×10^4 cells/dish in 100 mm dishes. Cells were transfected the next day with MMTV-Luc (5 μg) and pGL4-hRLuc (0.1 μg), in 250 μL of Opti-MEM I using FuGENE HD (15 μL). After 24 hours, cells were trypsinized and seeded into 96-well plates at a density of 8-10×10^4 cells/mL.
# Following overnight incubation to allow attachment, cells were treated with the required concentration of compounds, then further incubated for 16 hours. Media was aspirated and cells lysed in 40 μL of 1×PLB.
# (§2) Firefly and Renilla luciferase activity was measured using the Dual Luciferase Reporter system following the manufacturer's protocol.
# (§3) IC50 and EC50 values were calculated by using GraphPad Prism 5.0. Briefly, luminescence values for luciferase were normalised using the Renilla luminescence values. The normalised values were input into GraphPad Prism 5.0. Non-linear regression analysis was carried out using the “log(concentration) vs. response” equation of the software, with a Hill slope coefficient fixed at 1.
# (§4) IC50 and EC50 values are mean values in nM of all IC50/EC50 values for the compound. Max % values are mean values of the Max% activity.
# [2] = test system: NFkB; assay: Transrepression assay (NFκB-LUC reporter in HeLa cells, TNF stimulated); type: cell-based; conditions: for Emax / IC50: Homo sapiens, HeLa; for Emax: 16 h, read-out: TR Max %; for TR %: maximal NFkB repression compared to Dexamethasone
# Experimental: as §1, with “NFκB-LUC reporter” for “MMTV-Luc”, “0.25 mL” for “250 μL”, “in to 24-well” for “into 96-well”, “cells/mL. Following overnight incubation, cells were starved for a further 24 hours in DMEM.” for “cells/mL.”
# On the day of the experiment, compounds were added to cells one hour prior to the addition of […] (0.5 ng/mL). After a further 16 hours, cells were washed twice with ice-cold PBS, then lysed with 100 μL of 1×PLB.
# as §2, §3, §4
# [3] = concentration for half-maximal transactivation; HeLa, MMTV-Luc, 16 hours; mean; read-out: TA EC50
# [4] = concentration for half-maximal repression of NFkB, TNF 0.5 ng/mL, 16 hours, mean, read-out: TR IC50
# [5] = comparison table; against maximal activation seen with dexamethasone
# [6] = comparison table, half-maximal repression of NFkB, multiple experiments, read-out: IC50
SMILES,"Emax ([1]; HeLa, 16 h; read-out: TA Max %) [%]","EC50 [1, 3] [nM]",Emax [2] [%],"IC50 [2, 4] [nM]","TA % [1, 5] [%]","IC50 [2, 6] [nM]",TR % ([2]; comparison table) [%],"Emax ([1]; HeLa, 16 h, read-out: TA Max %) [%]"
C[C@@H]1C[C@H]2[C@@H]3CCC4=CC(=O)C=C[C@]4(C)[C@@]3(F)[C@@H](O)C[C@]2(C)[C@@]1(O)c1csc(NC(=O)c2ccc(C(F)(F)F)cc2)n1 [Compound 30],7.43,1410,41.3,35.5,,,,
COc1cccc(OCCCNC(=O)[C@@]2(O)[C@H](C)C[C@H]3[C@@H]4CCC5=CC(=O)C=C[C@]5(C)[C@@]4(F)[C@@H](O)C[C@@]32C)c1 [Compound 15],20.8,1230,79.7,3.53,,,,
Cc1ccc(C(=O)Nc2nc([C@@]3(O)[C@H](C)C[C@H]4[C@@H]5CCC6=CC(=O)C=C[C@]6(C)[C@@]5(F)[C@@H](O)C[C@@]43C)cs2)cc1 [Compound 45],5.74,8480,42.3,20.2,,,,
C[C@@H]1C[C@H]2[C@@H]3CCC4=CC(=O)C=C[C@]4(C)[C@@]3(F)[C@@H](O)C[C@]2(C)[C@@]1(O)C(=O)NCCOc1ccccn1 [Compound 8],49.7,248,95,5.69,,,,
C[C@@H]1C[C@H]2[C@@H]3CCC4=CC(=O)C=C[C@]4(C)[C@@]3(F)[C@@H](O)C[C@]2(C)[C@@]1(O)C(=O)NCCOc1nc2ccccc2o1 [Compound 10],4.79,3390,55.1,35.4,,,,
C[C@@H]1C[C@H]2[C@@H]3CCC4=CC(=O)C=C[C@]4(C)[C@@]3(F)[C@@H](O)C[C@]2(C)[C@@]1(O)C(=O)NCCCOc1ccc(C(F)(F)F)cc1 [Compound 9],15.1,1110,80.5,25,,,,
C[C@@H]1C[C@H]2[C@@H]3CCC4=CC(=O)C=C[C@]4(C)[C@@]3(F)[C@@H](O)C[C@]2(C)[C@@]1(O)c1csc(NC(=O)c2ccc[nH]2)n1 [Compound 37],3.22,2770,31.4,17.9,,,,
C[C@@H]1C[C@H]2[C@@H]3CCC4=CC(=O)C=C[C@]4(C)[C@@]3(F)[C@@H](O)C[C@]2(C)[C@@]1(O)C(=O)NCCCOc1ccc(F)cc1 [Compound 6],16,890,84.6,11.5,,,,
C[C@@H]1C[C@H]2[C@@H]3CCC4=CC(=O)C=C[C@]4(C)[C@@]3(F)[C@@H](O)C[C@]2(C)[C@@]1(O)c1csc(NC(=O)c2ccc(F)cc2)n1 [Compound 23],5.67,1400,52.1,35.8,6,35.8,52,
C[C@@H]1C[C@H]2[C@@H]3CCC4=CC(=O)C=C[C@]4(C)[C@@]3(F)[C@@H](O)C[C@]2(C)[C@@]1(O)C(=O)NCCOc1ccc(F)cc1 [Compound 5],27.2,321,104,8.13,,,,
COC(=O)c1ccc(OCCCNC(=O)[C@@]2(O)[C@H](C)C[C@H]3[C@@H]4CCC5=CC(=O)C=C[C@]5(C)[C@@]4(F)[C@@H](O)C[C@@]32C)cc1 [Compound 17],39.1,832,82.3,1.19,39,1.19,87,
C[C@@H]1C[C@H]2[C@@H]3CCC4=CC(=O)C=C[C@]4(C)[C@@]3(F)[C@@H](O)C[C@]2(C)[C@@]1(O)C(=O)NCCCc1ccccc1 [Compound 11],36.5,114,88.8,30.2,,,,
C[C@@H]1C[C@H]2[C@@H]3CCC4=CC(=O)C=C[C@]4(C)[C@@]3(F)[C@@H](O)C[C@]2(C)[C@@]1(O)c1csc(NC(=O)c2cnco2)n1 [Compound 41],1.27,10300,26,41.8,,,,
C[C@@H]1C[C@H]2[C@@H]3CCC4=CC(=O)C=C[C@]4(C)[C@@]3(F)[C@@H](O)C[C@]2(C)[C@@]1(O)C(=O)NCCCc1cccc(F)c1 [Compound 14],36.6,536,88.6,23.9,,,,
COc1ccc(C(=O)Nc2nc([C@@]3(O)[C@H](C)C[C@H]4[C@@H]5CCC6=CC(=O)C=C[C@]6(C)[C@@]5(F)[C@@H](O)C[C@@]43C)cs2)cc1 [Compound 34],0,17500,51.8,4.76,,,,
COc1ccc(CCCNC(=O)[C@@]2(O)[C@H](C)C[C@H]3[C@@H]4CCC5=CC(=O)C=C[C@]5(C)[C@@]4(F)[C@@H](O)C[C@@]32C)cc1OC [Compound 13],30,189,87.6,10.8,,,,
C[C@@H]1C[C@H]2[C@@H]3CCC4=CC(=O)C=C[C@]4(C)[C@@]3(F)[C@@H](O)C[C@]2(C)[C@@]1(O)c1csc(NC(=O)c2ccc(Cl)cc2)n1 [Compound 27],5.89,1640,49.7,10.9,,,,
C[C@@H]1C[C@H]2[C@@H]3CCC4=CC(=O)C=C[C@]4(C)[C@@]3(F)[C@@H](O)C[C@]2(C)[C@@]1(O)c1csc(NCc2ccccc2)n1 [Compound 25],1.92,3930,79,29.1,,,,
C[C@@H]1C[C@H]2[C@@H]3CCC4=CC(=O)C=C[C@]4(C)[C@@]3(F)[C@@H](O)C[C@]2(C)[C@@]1(O)C(=O)NCCCc1ccccc1O [Compound 3],24.1,1150,76,21.9,,,,
COc1ccc(OCCCNC(=O)[C@@]2(O)[C@H](C)C[C@H]3[C@@H]4CCC5=CC(=O)C=C[C@]5(C)[C@@]4(F)[C@@H](O)C[C@@]32C)cc1 [Compound 4],,69.2,106,3.95,,,,39.4
